This passage reports TGI and GI50 results from PubChem BioAssay (NCI).

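All cell lines were grown in 96-well plates and treated with compound for 48 hours. GI50 = concentration required for 50% inhibition of growth. TGI denotes the concentration required for complete inhibition of growth.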

Test systems include IGROV1 ovarian; MDA-MB-231 breast; NCI-H23 lung; PC-3 prostate; RPMI-8226 leukemia; RXF 393 renal; UACC-62 melanoma; SNB-19 CNS; SNB-75 CNS.
Assay in all cases: NCI anticancer screen, dose series, 48 h

With `COc1cc(C2C(Cl)C(=O)N2c2c(C)n(C)n(-c3ccccc3)c2=O)ccc1O` (stereo not drawn), the TGI in the assay with IGROV1 ovarian is 29.1 µM; with MDA-MB-231 breast it was 49.1 µM; with NCI-H23 lung it was 34.2 µM; with PC-3 prostate it was greater than 100 µM; with RPMI-8226 leukemia, 50.1 µM; in the assay with RXF 393 renal it was 33.6 µM. In addition, in the assay with UACC-62 melanoma, the TGI was determined as 29.7 µM.
Consider `O=C(CCN1CCN2c3ccccc3CCC2C1)c1ccc(F)cc1` (stereo not drawn), for which the TGI in the assay with IGROV1 ovarian was 47.9 µM; with MDA-MB-231 breast, greater than 100 µM; in the assay on NCI-H23 lung, greater than 100 µM; in the assay on PC-3 prostate, greater than 100 µM; in the assay with RPMI-8226 leukemia, greater than 100 µM; in the assay with RXF 393 renal, 43.3 µM. Also, the TGI with SNB-19 CNS was 47.5 µM; in the assay on SNB-75 CNS, 44.8 µM; with UACC-62 melanoma it was greater than 100 µM.
For the compound `COC(=O)C1C(=O)N(C)C(=O)N2CCCC12` (stereo not drawn), the TGI in the assay with IGROV1 ovarian, with MDA-MB-231 breast, in the assay on NCI-H23 lung, in the assay with PC-3 prostate, with RPMI-8226 leukemia and with RXF 393 renal was greater than 100 µM in each case. The TGI with SNB-19 CNS, in the assay on SNB-75 CNS and with UACC-62 melanoma was greater than 100 µM throughout.
For `Cc1cc2c([nH]c3ccccc32)c(O)c1-c1c(C)cc2c([nH]c3ccccc32)c1O`, the TGI was determined as 25.2 µM with IGROV1 ovarian; 33 µM in the assay with MDA-MB-231 breast; 26.8 µM with NCI-H23 lung; 25.9 µM with PC-3 prostate; 18.5 µM with RPMI-8226 leukemia; 23.1 µM in the assay with RXF 393 renal. Moreover, the TGI amounted to 32.2 µM in the assay with SNB-19 CNS and 27.5 µM in the assay with SNB-75 CNS. Further, the GI50 with NCI-H23 lung was 12.4 µM; with RPMI-8226 leukemia it was 3.85 µM.
Regarding `CN(C)Cc1cc(C(=O)/C=C/c2ccccc2)cc(CN(C)C)c1O`, the TGI with IGROV1 ovarian was greater than 100 µM; in the assay on MDA-MB-231 breast, 58.1 µM; in the assay on NCI-H23 lung it was greater than 100 µM; with PC-3 prostate it was 36.9 µM; in the assay on RPMI-8226 leukemia, 54.3 µM; with RXF 393 renal it was 71.8 µM. In addition, the TGI with SNB-19 CNS and in the assay with SNB-75 CNS was greater than 100 µM throughout.
As to `CC1(C)CC(=O)C2(CC(CSc3ccccc3)C(CS(=O)(=O)c3ccccc3)C2)C(=O)C1` (stereo not drawn), the TGI with IGROV1 ovarian, with MDA-MB-231 breast, with NCI-H23 lung, in the assay with PC-3 prostate, in the assay with RPMI-8226 leukemia and in the assay with RXF 393 renal was greater than 100 µM throughout. For the same compound, the TGI in the assay on SNB-19 CNS, in the assay on SNB-75 CNS and in the assay with UACC-62 melanoma was greater than 100 µM in each case.
Turning to `CN(C)CCn1c(CO)nc2c1c(=O)n(C)c(=O)n2C`, the TGI with IGROV1 ovarian, with MDA-MB-231 breast, with NCI-H23 lung, in the assay with PC-3 prostate, with RPMI-8226 leukemia and with RXF 393 renal was greater than 100 µM in each case. The TGI in the assay on SNB-19 CNS, in the assay with SNB-75 CNS and with UACC-62 melanoma was greater than 100 µM throughout.
Turning to `CCOC(=O)c1cc(C)nc2c1c(=O)n(-c1ccccc1)c(=O)n2CCCCN1CCN(c2ccccc2)CC1`, the TGI in the assay on IGROV1 ovarian was greater than 100 µM; in the assay with MDA-MB-231 breast it was greater than 100 µM; with NCI-H23 lung it was greater than 100 µM; in the assay on PC-3 prostate it was greater than 100 µM; in the assay on RPMI-8226 leukemia, 77.3 µM; in the assay on RXF 393 renal it was greater than 100 µM. Moreover, the TGI in the assay with SNB-75 CNS and in the assay on UACC-62 melanoma was greater than 100 µM in each case.
For the compound `NNC(=O)C1(NC(=O)c2ccccc2)C(c2ccccc2)C(c2ccccc2)=NN1c1ccccc1` (stereo not drawn), the TGI in the assay with IGROV1 ovarian is greater than 100 µM; in the assay on MDA-MB-231 breast, greater than 100 µM; with NCI-H23 lung, greater than 100 µM; in the assay with PC-3 prostate, greater than 100 µM; with RPMI-8226 leukemia, greater than 100 µM; in the assay with RXF 393 renal it was 53.4 µM. The values for the TGI in the assay with SNB-19 CNS, in the assay on SNB-75 CNS and in the assay on UACC-62 melanoma were greater than 100 µM, greater than 100 µM and 56.9 µM, respectively.
Take `Nc1nc(Cl)cc(NC23CC4CC(CC(C4)C2)C3)n1`: the TGI in the assay with IGROV1 ovarian, with MDA-MB-231 breast, with NCI-H23 lung, in the assay on PC-3 prostate, with RPMI-8226 leukemia and in the assay with RXF 393 renal was greater than 100 µM each time. The TGI with SNB-19 CNS was greater than 100 µM; in the assay on SNB-75 CNS it was 90.8 µM; with UACC-62 melanoma, greater than 100 µM.
Take `CC(C)/C(Cl)=N\OC(NC(=O)P(=O)(c1ccccc1)c1ccccc1)(C(F)(F)F)C(F)(F)F`: the TGI in the assay with IGROV1 ovarian was found to be 28.4 µM; in the assay with MDA-MB-231 breast, 34.4 µM; in the assay with NCI-H23 lung it was 23.8 µM; with PC-3 prostate, 34.4 µM; with RPMI-8226 leukemia, 37.5 µM; with RXF 393 renal, 34 µM. The TGI with SNB-19 CNS was 35.3 µM; with UACC-62 melanoma, 49 µM.
Regarding `C=C=C(CC(CC(=C)Br)(C(=O)OC)C(=O)OC)S(=O)(=O)c1ccccc1`, the TGI with IGROV1 ovarian turned out to be 5.52 µM; with MDA-MB-231 breast it was 4.93 µM; in the assay with NCI-H23 lung, 6.33 µM; with PC-3 prostate, 4.31 µM; with RPMI-8226 leukemia it was 4.37 µM; in the assay on RXF 393 renal, 3.99 µM. Further, the TGI with SNB-19 CNS worked out at 24.9 µM; in the assay on SNB-75 CNS, 20.5 µM; in the assay on UACC-62 melanoma it was 3.11 µM.
On to `O=c1[nH]n(Cc2ccccc2)c2ccc([N+](=O)[O-])cc12`, for which the TGI was greater than 100 µM in the assay with IGROV1 ovarian; 78.6 µM in the assay on MDA-MB-231 breast; greater than 100 µM in the assay with NCI-H23 lung; greater than 100 µM in the assay on PC-3 prostate; greater than 100 µM with RPMI-8226 leukemia; greater than 100 µM with RXF 393 renal. Further, the TGI with SNB-19 CNS and in the assay with UACC-62 melanoma was greater than 100 µM in each case.
For the compound `CCOP(=O)(O)CN1CCNCCN(CP(=O)(O)OCC)CCNCC1`, the TGI in the assay on IGROV1 ovarian, in the assay on MDA-MB-231 breast, in the assay on PC-3 prostate, in the assay on RPMI-8226 leukemia, in the assay on RXF 393 renal and with SNB-19 CNS was greater than 100 µM in each case. The TGI in the assay on SNB-75 CNS and in the assay on UACC-62 melanoma was greater than 100 µM each time.
For the compound `NCC(O)CSCc1ccc(Cl)cc1` (stereo not drawn), the TGI in the assay on IGROV1 ovarian, with MDA-MB-231 breast, in the assay on NCI-H23 lung, in the assay with PC-3 prostate, in the assay with RPMI-8226 leukemia and with RXF 393 renal was greater than 100 µM throughout. In addition, the TGI in the assay on SNB-19 CNS and with UACC-62 melanoma was greater than 100 µM each time.
